Measurements as given in paper PMC7932537, “Quantitative profiling of protease specificity” (PLoS Computational Biology, 2021).

Columns and labels:
MMP-9 [1] = test: Substrate phage display with NGS: relative probability (RP) of P3-P1' tetramer clusters; type: biochemical, human; settings: MMP9; RP of the substrate's P3-P1' tetramer, substrate phage display with NGS;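 also: ratio of tetramer probability after protease selection to that in naive phage library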
MMP-2 = molecular target: T1, MMP-2 (Homo sapiens, UniProt P08253); test: K(obs) of individual phage substrates (set of 1369); type: biochemical; settings: MMP2; individual phage substrate from the set of 1369 peptides; hyphen in the sequence marks the cleavage position
T1 sequence (P08253 110-660): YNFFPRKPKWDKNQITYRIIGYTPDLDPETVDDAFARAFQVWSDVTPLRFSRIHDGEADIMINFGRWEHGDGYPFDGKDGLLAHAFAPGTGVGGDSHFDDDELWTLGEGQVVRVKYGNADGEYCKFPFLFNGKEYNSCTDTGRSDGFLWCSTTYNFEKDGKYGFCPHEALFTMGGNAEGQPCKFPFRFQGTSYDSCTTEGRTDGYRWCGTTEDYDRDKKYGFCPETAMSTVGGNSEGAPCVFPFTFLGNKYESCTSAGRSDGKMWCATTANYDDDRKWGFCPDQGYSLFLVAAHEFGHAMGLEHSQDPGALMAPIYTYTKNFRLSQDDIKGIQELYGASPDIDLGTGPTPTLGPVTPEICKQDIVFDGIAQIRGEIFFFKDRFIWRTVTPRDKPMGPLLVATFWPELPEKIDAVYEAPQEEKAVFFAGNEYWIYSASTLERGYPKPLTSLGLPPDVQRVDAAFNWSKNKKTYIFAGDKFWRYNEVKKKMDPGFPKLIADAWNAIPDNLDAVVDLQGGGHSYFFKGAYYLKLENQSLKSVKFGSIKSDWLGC

MMP-9 [2] = molecular target: MMP-9 (Homo sapiens, UniProt P14780); test: as above; type: biochemical; settings: MMP9; individual phage substrate of the set of 1369 peptides; dash in sequence marks cleavage position
Chain of MMP-9 (Homo sapiens, UniProt P14780) (P14780 94-707): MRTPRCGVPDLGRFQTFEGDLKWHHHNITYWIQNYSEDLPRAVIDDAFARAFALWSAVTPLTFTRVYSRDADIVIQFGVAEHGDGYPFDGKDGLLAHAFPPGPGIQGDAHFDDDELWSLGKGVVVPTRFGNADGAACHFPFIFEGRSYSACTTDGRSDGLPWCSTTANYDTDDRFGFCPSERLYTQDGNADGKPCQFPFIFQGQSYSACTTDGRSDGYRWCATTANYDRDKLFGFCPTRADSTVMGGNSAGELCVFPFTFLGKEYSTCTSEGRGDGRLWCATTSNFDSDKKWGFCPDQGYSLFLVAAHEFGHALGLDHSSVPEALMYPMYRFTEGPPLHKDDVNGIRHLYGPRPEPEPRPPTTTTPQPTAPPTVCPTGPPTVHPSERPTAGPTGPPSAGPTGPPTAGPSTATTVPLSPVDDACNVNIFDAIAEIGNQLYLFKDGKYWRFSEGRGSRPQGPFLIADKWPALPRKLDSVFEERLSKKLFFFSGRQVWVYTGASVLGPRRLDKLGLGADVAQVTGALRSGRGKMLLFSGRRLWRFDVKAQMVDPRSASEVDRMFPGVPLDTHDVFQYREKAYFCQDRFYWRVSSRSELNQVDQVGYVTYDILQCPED

Substance	relative probability (RP) (MMP-9 [1])	Kobs (MMP-2) [M⁻¹ s⁻¹]	Kobs (MMP-9 [2]) [M⁻¹ s⁻¹]
AHPSA-LTASG	47.6113	12792.1	12792.1
AMPKH-LTASG	46.5072	12792.1	12792.1
ATLAA-LTASG	6.32	12792.1	0
ATLAA-WTASG	1.553	10866.7	113.394
CAPTA-LTASG	40.9775	12792.1	10866.7
DSPLS-LTASG	48.1735	12792.1	12792.1
EAIGR-LTASG	4.541	12792.1	517.582
EGPMR-LTASG	42.6597	12792.1	12792.1
EHPGL-LTASG	19.6268	2996.69	113.394
ERPFF-LTASG	36.9909	12792.1	12792.1
ESIRG-LTASG	41.2198	12792.1	6688.74
ESIRH-LTASG	35.7683	12792.1	5667.28
EWPSR-MTASG	33.7336	6396.07	3964.21
FAPAE-VTASG	5.593	12792.1	3438.54
FDVWM-LTASG	17.1619	912.511	1283.43
FEPQR-MTASG	31.7168	690.17	7815.03
FHPSR-FTASG	21.0555	12792.1	2916.17
FIPFP-FTASG	42.1583	12792.1	12792.1
FIPMW-STASG	27.7553	451.441	6131.32
FKAVA-LTASG	32.1946	12792.1	12792.1
FLPRM-LTASG	42.2884	12792.1	12792.1
FQIGS-LTASG	7.1912	12792.1	1465.65

Substance	relative probability (RP) (MMP-9 [1])	Kobs (MMP-2) [M⁻¹ s⁻¹]	Kobs (MMP-9 [2]) [M⁻¹ s⁻¹]
FVVRL-LTASG	11.0035	2615.58	2615.58
FYFSN-LTASG	0.7913	12792.1	0
GAPAK-LRTAS	39.5582	12792.1	10866.7
GAPAR-FTTAS	21.7112	12792.1	1071.29
GDPRW-LSTAS	47.776	6688.74	9740.44
GEPLF-LRTAS	38.6603	12792.1	12792.1
GEPSA-YRTAS	46.6524	12792.1	12792.1
GFPRA-FRTAS	44.1248	12792.1	7815.03
GFTRW-LTASG	25.6075	4763.33	6396.07
GFVFE-LRTAS	20.3412	5889.62	9740.44
GGIAA-MRTAS	10.5791	1071.29	386.839
GGPAP-MWTAS	45.1106	2476.66	5667.28
GGPST-LTASG	36.3405	9740.44	4613.14
GGSGN-LTVKT	1.504	12792.1	0
GHIAW-FTASG	7.9655	12792.1	1513.13
GHPSP-FTASG	37.3217	12792.1	0
GLARA-LKTAS	38.5396	12792.1	4335.13
GLPAA-LTTAS	47.6262	12792.1	12792.1
GLVWN-LWTAS	38.922	1660.66	8321.48
GMLRA-MHTAS	36.706	6396.07	3253.29
GMPGR-LSTAS	29.3451	7015.91	517.582
GMPLG-LRTAS	48.9856	10866.7	12792.1
